# Measurements reported in patent US20170114049A1, “2,5-DISUBSTITUTED CYCLOPENTANE CARBOXYLIC ACIDS FOR THE TREATMENT OF RESPIRATORY TRACT DISEASES” (BAYER PHARMA AKTIENGESELLSCHAFT, priority 2014, published 2017).
# pIC50: −log10 of the molar value.
# Key:
# [1] = target: T1, human macrophage elastase (HME/hMMP-12) (Homo sapiens, UniProt P39900); assay: In vitro HME inhibition test in the presence of serum albumin (BSA) in the reaction buffer; type: biochemical; settings: presence of serum albumin (BSA) 2% (w/w)
# T1 construct: 0.5 nM HME; purchased R&D Systems 917-MP
# T1 sequence (P39900 106-470): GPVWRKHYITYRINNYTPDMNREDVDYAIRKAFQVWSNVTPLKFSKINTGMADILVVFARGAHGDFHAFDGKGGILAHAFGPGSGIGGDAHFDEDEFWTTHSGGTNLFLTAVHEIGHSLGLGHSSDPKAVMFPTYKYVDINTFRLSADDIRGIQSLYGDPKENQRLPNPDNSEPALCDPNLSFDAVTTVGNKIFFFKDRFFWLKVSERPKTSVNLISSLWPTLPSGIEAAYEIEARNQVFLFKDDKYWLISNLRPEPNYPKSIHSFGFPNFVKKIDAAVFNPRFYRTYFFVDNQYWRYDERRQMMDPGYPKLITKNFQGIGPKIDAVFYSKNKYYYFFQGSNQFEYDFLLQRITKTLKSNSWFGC
# Excerpt: This test corresponds to the standard HME inhibition test described above, except using a modified reaction buffer. This reaction buffer additionally contains bovine serum albumin (BSA, fatty acid-free, A6003, from Sigma-Aldrich) of final concentration 2% (w/w), which corresponds to about half the physiological serum albumin content.
# MMP-7 = target: T2, MMP-7 (Homo sapiens, UniProt P09237); assay: In vitro MMP-7 inhibition test; type: biochemical
# T2 construct: purchased R&D Systems 907-MP
# T2 sequence (P09237 95-267): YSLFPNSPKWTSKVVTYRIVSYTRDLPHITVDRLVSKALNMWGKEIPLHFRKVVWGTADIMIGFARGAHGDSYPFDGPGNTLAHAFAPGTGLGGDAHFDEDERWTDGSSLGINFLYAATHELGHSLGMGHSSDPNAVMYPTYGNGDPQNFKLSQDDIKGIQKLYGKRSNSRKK
# Excerpt: (§1) The MMP-mediated amidolytic cleavage of a suitable peptide substrate leads to an increase in fluorescent light here too. The signal intensity of the fluorescent light is directly proportional to the enzyme activity. The active concentration of a test compound at which half the enzyme is inhibited (50% signal intensity of the fluorescent light) is reported as the […].
# (§2) Recombinant MMP-7 (from R&D Systems, 907-MP) is chemically activated in accordance with the manufacturer's instructions using APMA. 1 μl of the test compound to be analysed (as a solution in DMSO, suitable concentrations, for example, 1 nM to 30 μM) is pipetted into 24 μl of activated enzyme (final concentration, for example, 0.5 nM) in reaction buffer (50 mM Tris/HCl pH 7.5, 10 mM CaCl2, 150 mM NaCl, 0.05% Brij®-35) in a white 384-hole microtiter plate (MTP). The enzymatic reaction is started by adding the intramolecularly quenched Mca-Pro-Leu-Gly-Leu-Dpa(Dnp)-Ala-Arg-NH2 substrate (final concentration, for example, 10 μM; R&D Systems, ES-001), so as to result in a total test volume of 50 μl. The course of the MMP-7 reaction is measured by measuring the fluorescence intensity (excitation 320 nm, emission 410 nm) over a suitable period of time (for example over 120 min at a temperature of 32° C.).
# MMP-9 = target: T3, MMP-9 (Homo sapiens, UniProt P14780); assay: In vitro MMP-9 inhibition test; type: biochemical
# T3 construct: purchased R&D Systems 911-MP
# T3 sequence (P14780 107-707 limits assumed): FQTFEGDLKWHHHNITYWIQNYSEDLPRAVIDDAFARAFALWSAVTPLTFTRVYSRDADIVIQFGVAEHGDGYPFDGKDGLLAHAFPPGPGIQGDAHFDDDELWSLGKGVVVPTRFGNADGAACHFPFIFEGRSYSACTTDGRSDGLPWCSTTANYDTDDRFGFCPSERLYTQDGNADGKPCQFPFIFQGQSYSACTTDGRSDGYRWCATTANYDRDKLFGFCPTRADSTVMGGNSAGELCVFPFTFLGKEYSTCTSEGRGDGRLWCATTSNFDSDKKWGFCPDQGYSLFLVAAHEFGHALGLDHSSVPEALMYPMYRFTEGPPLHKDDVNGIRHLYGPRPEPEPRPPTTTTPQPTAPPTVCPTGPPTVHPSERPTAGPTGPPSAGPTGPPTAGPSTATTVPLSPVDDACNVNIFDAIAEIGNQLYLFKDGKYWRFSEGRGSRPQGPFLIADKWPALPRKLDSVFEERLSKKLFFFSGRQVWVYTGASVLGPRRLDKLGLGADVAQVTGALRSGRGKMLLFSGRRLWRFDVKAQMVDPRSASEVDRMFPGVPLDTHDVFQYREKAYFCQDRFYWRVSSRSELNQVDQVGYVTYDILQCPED
# MMP-13 = target: T4, MMP-13 (Homo sapiens, UniProt P45452); assay: In vitro MMP-13 inhibition test; type: biochemical
# T4 construct: purchased R&D Systems 511-MP
# Excerpt: as §1
# as §2, with “MMP-13” for “MMP-7”, “511-MP)” for “907-MP)”, “0.1” for “0.5”
# MMP-16 = target: T5, MMP-16 (Homo sapiens, UniProt P51512); assay: In vitro MMP-16 inhibition test; type: biochemical
# T5 construct: purchased R&D Systems 1785-MP
# T5 sequence (P51512 120-607): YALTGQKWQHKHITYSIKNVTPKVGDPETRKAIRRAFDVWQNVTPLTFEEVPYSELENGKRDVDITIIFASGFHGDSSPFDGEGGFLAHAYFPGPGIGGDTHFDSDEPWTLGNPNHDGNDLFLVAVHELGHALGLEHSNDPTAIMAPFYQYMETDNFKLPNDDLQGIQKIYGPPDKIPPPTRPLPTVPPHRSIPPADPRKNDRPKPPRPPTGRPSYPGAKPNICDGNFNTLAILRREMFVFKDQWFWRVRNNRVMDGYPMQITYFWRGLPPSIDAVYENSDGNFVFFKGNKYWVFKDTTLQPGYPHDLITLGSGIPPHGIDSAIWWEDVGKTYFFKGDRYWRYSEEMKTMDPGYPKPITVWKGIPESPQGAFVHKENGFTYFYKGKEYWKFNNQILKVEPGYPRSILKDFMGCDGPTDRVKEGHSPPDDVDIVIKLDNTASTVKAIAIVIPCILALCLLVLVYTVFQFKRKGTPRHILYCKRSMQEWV
# Excerpt: as §1
# Recombinant MMP-16 (from R&D Systems, 1785-MP) is enzymatically activated in accordance with the manufacturer's instructions using recombinant furin (from R&D Systems, 1503-SE). 1 μl of the test compound to be analysed (as a solution in DMSO, suitable concentrations e.g. 1 nM to 30 μM) is pipetted into 24 μl of activated enzyme (final concentration e.g. 1 nM) in reaction buffer (50 mM Tris/HCl pH 7.5, 10 mM CaCl2, 150 mM NaCl, 0.05% Brij®-35) in a white 384-hole microtiter plate (MTP). The enzymatic reaction is started by adding the intramolecularly quenched Mca-Lys-Pro-Leu-Gly-Leu-Dpa(Dnp)-Ala-Arg-NH2 substrate (final concentration, for example, 5 μM; R&D Systems, ES-010), so as to result in a total test volume of 50 μl. The course of the MMP-16 reaction is measured by measuring the fluorescence intensity (excitation 320 nm, emission 410 nm) over a suitable period of time (for example over 120 min at a temperature of 32° C.).
# [2] = Determination of solubility in PBS buffer pH 6.5; settings: PBS buffer pH 6.5, 1% DMSO, room temperature; for solubility at 24 h: PBS buffer, pH 6.5, aqueous buffer, kinetic from dmso stock
# Method: The test substance is dissolved in DMSO. An aliquot is taken from this solution and introduced into PBS buffer pH 6.5 (DMSO content: 1%). This solution/suspension is agitated at room temperature for 24 h. After ultracentrifugation at 114000 g for 30 min, the supernatant is removed, diluted with acetonitrile/water 8:2 and analysed by LC-MSMS. Quantification is effected by means of a five-point calibration curve of the test compound in DMSO.
# rat hepatocytes = assay: Hepatocyte assay for determination of metabolic stability; settings: after incubation with rat hepatocytes
# Method: Seven samples from the incubation solution are taken for the LC-MS analysis within a fixed time pattern, in order to determine the half-life (i.e. the degradation) of the particular compound. This half life is used to calculate various “Clearance” parameters (CL) and “Fmax” values (see below).
# The CL and Fmax values are a measure of the phase 1 and phase 2 metabolism of the compounds in the hepatocytes. In order to minimize the influence of the organic solvent on the enzymes in the incubation batches, the concentration thereof is generally limited to 1% (acetonitrile) or 0.1% (DMSO).
# For all species and breeds, a hepatocyte cell count in the liver of 1.1*10^8 cells/g of liver is expected.
# The parameters calculated and the meanings thereof are: • Fmax well-stirred [%] maximum possible bioavailability after oral administration • Calculation: (1-CLblood well-stirred/QH)*100 • CLblood well-stirred [L/(h*kg)] calculated blood clearance (well-stirred model) • Calculation: (QH*CLintrinsic)/(QH+CL′intrinsic) • CL′intrinsic[ml/(min*kg)] maximum ability of the liver (of the hepatocytes) to metabolize a compound (assuming that the liver blood flow is not rate-limiting) • Calculation: CLintrinsic, apparent* species-specific hepatocyte count [1.1* 10^8/g liver]*species-specific liver weight [g/kg] • CL′intrinsic, apparent[ml/(min*mg)] normalizes the elimination constant by dividing it by the hepatocyte cell count x used (x*10^6/ml) • Calculation: kcl[1/min]/(cell count [x*10^6]/incubation volume [ml]) • (QH=species-specific liver blood flow).
Compound,pIC50 [1],pIC50 (MMP-7),pIC50 (MMP-9),pIC50 (MMP-13),pIC50 (MMP-16),solubility at 24 h [2],"CLblood (calculated blood clearance, well-stirred) (rat hepatocytes)","Fmax (maximum possible bioavailability after oral administration, well-stirred) (rat hepatocytes)",Solubility ([2]; 24 h)
"O=C(O)[C@@H]1[C@@H](Cn2nnc3ccccc3c2=O)CC[C@H]1C(=O)c1ccc(OCCC2CCOCC2)cc1 (single isomer, unassigned) [Example 5, (+)-(1RS,2SR,5RS)-2-[(4-Oxo-1,2,3-benzotriazin-3(4H)-yl)methyl]-5-{4-[2-(tetrahydro-2H-pyran-4-yl)ethoxy]benzoyl}cyclopentanecarboxylic acid]",8.39,6.22,6.34,7.17,6.03,0.338 mg/mL,,,
"O=C(O)[C@H]1[C@H](Cn2nnc3ccccc3c2=O)CC[C@@H]1C(=O)c1ccc(OCC2CCOCC2)cc1 (stereo in doubt) [Example 1, (+/−)-(1RS,2SR,5RS)-2-[(4-Oxo-1,2,3-benzotriazin-3(4H)-yl)methyl]-5-[4-(tetrahydro-2H-pyran-4-ylmethoxy)benzoyl]cyclopentanecarboxylic acid]",8.19,5.92,6.35,6.96,5.82,0.0522 mg/mL,1.02 L/h/kg,75.7%,
"O=C(O)[C@@H]1[C@@H](Cn2nnc3ccccc3c2=O)CC[C@H]1C(=O)c1ccc(OCC2CCOCC2)cc1 (stereo in doubt) [Example 2, (+)-(1RS,2SR,5RS)-2-[(4-Oxo-1,2,3-benzotriazin-3(4H)-yl)methyl]-5-[4-(tetrahydro-2H-pyran-4-ylmethoxy)benzoyl]cyclopentanecarboxylic acid]",8.17,6.19,6.44,7.31,6.26,,0.44 L/h/kg,89.5%,
"O=C(O)[C@H]1[C@H](Cn2nnc3ccccc3c2=O)CC[C@@H]1C(=O)c1ccc(OCCC2CCOCC2)cc1 (stereo in doubt) [Example 4, (+/−)-(1RS,2SR,5RS)-2-[(4-Oxo-1,2,3-benzotriazin-3(4H)-yl)methyl]-5-{4-[2-(tetrahydro-2H-pyran-4-yl)ethoxy]benzoyl}cyclopentanecarboxylic acid]",7.43,5.49,5.30,6.34,5.15,0.0514 mg/mL,,,
"O=C(O)[C@H]1[C@H](Cn2nnc3ccc(C(F)(F)F)cc3c2=O)CC[C@@H]1C(=O)c1ccc(OCCC2CCOCC2)cc1 (stereo in doubt) [Example 10, (+/−)-(1RS ,2S R,5RS)-2-{[4-Oxo-6-(trifluoromethyl)-1,2,3-benzotriazin-3(4H)-yl]methyl}-5-{4-[2-(tetrahydro-2H-pyran-4-yl)ethoxy]benzoyl}cyclopentanecarboxylic acid]",,7.02,6.51,6.64,5.74,0.0334 mg/mL,,,
"(+)-(1RS,2SR,5RS)-2-{[4-Oxo-6-(trifluoromethyl)-1,2,3-benzotriazin-3(4H)-yl]methyl}-5-[4-(tetra-hydro-2H-pyran-4-ylmethoxy)benzoyl]cyclopentanecarboxylic acid [Example 8]",8.61,7.35,7.26,7.29,6.55,,0.29 L/h/kg,93.1%,0.0045 mg/mL
"O=C(O)[C@H]1[C@H](Cn2nnc3ccc(C(F)(F)F)cc3c2=O)CC[C@@H]1C(=O)c1ccc(OCC2CCOCC2)cc1 (racemic) [Example 7, (+/−)-(1RS,2SR,5RS)-2-{[4-Oxo-6-(trifluoromethyl)-1,2,3-benzotriazin-3(4H)-yl]methyl}-5-[4-(tetrahydro-2H-pyran-4-ylmethoxy)benzoyl]cyclopentanecarboxylic acid]",,6.89,6.92,6.85,6.08,,,,

# The next lines start with results.
pIC50 [1],pIC50 (MMP-7),pIC50 (MMP-9),pIC50 (MMP-13),pIC50 (MMP-16),solubility at 24 h [2],"CLblood (calculated blood clearance, well-stirred) (rat hepatocytes)","Fmax (maximum possible bioavailability after oral administration, well-stirred) (rat hepatocytes)",Compound,Solubility ([2]; 24 h)
7.41,6.72,6.18,6.33,5.42,0.21 mg/mL,,,"O=C(O)[C@@H]1[C@@H](Cn2nnc3ccc(C(F)(F)F)cc3c2=O)CC[C@H]1C(=O)c1ccc(OCCC2CCOCC2)cc1 (single isomer, unassigned) [Example 11, (+)-(1RS,2SR,5RS)-2-{[4-Oxo-6-(trifluoromethyl)-1,2,3-benzotriazin-3(4H)-yl]methyl}-5-{4-[2-(tetrahydro-2H-pyran-4-yl)ethoxy]benzoyl}cyclopentanecarboxylic acid]",
7.80,7.10,6.82,6.66,6.12,,,,"O=C(O)[C@@H]1[C@@H](Cn2nnc3ccc(C(F)(F)F)cc3c2=O)CC[C@H]1C(=O)c1ccc(SCC2CCOCC2)cc1 (single isomer, unassigned) [Example 15, (+)-(1RS,2SR,5RS)-2-{[4-Oxo-6-(trifluoromethyl)-1,2,3-benzotriazin-3(4H)-yl]methyl}-5-{4-[(tetrahydro-2H-pyran-4-ylmethyl)sulphanyl]benzoyl}cyclopentanecarboxylic acid]",
7.91,6.54,6.43,6.77,5.51,0.425 mg/mL,,,"Cc1ccc2nnn(C[C@H]3CC[C@@H](C(=O)c4ccc(OCCC5CCOCC5)cc4)[C@@H]3C(=O)O)c(=O)c2c1 (single isomer, unassigned) [Example 20, (+)-(1RS,2SR,5RS)-2-[(6-Methyl-4-oxo-1,2,3-benzotriazin-3(4H)-yl)methyl]-5-{4-[2-(tetrahydro-2H-pyran-4-yl)ethoxy]benzoyl}cyclopentanecarboxylic acid]",
7.49,5.96,6.02,6.23,5.60,0.017 mg/mL,,,"Cc1ccc2nnn(C[C@@H]3CC[C@H](C(=O)c4ccc(OCCC5CCOCC5)cc4)[C@H]3C(=O)O)c(=O)c2c1 (racemic) [Example 19, (+/−)-(1RS,2SR,5RS)-2-[(6-Methyl-4-oxo-1,2,3-benzotriazin-3(4H)-yl)methyl]-5-{4-[2-(letrahydro-2H-pyran-4-yl)ethoxy]benzoyl}cyclopentanecarboxylic acid]",
